Data as given in ChEMBL document CHEMBL1201862, “PubChem BioAssay data set” (2004).
Active and inactive are the calls of the source.

Assays:
[1] = molecular target: 72 kDa type IV collagenase (Homo sapiens, UniProt P08253); experiment: Dose Response validation of uHTS RPN11 inhibitor hits using a MMP-2 Fluorescence assay.; assay type: functional
[2] = molecular target: 26S proteasome non-ATPase regulatory subunit 14 (Homo sapiens, UniProt O00487); experiment: inhibition of proteasome subunit RPN11 – biochemical, fluorescence polarization, uHTS hits, confirmation (AID 602368); assay type: functional
[3] = molecular target: Prothrombin (Bos taurus, UniProt P00735); experiment: thrombin inhibition, dose response, biochemical, fluorescence polarization, uHTS hits (AID 602369); assay type: functional
[4] = system: P388/ADR; experiment: cells; assay type: functional; conditions: Mus musculus
[5] = system: P388; experiment: cells; assay type: functional; conditions: Mus musculus
[6] = system: SN12K1; experiment: cells; assay type: functional; conditions: Homo sapiens
[7] = system: CHO; experiment: cytotoxicity in TLR9-MyD88 CHO cells, dose response, cytotoxicity control for TLR9-MyD88 binding inhibitor project, cell-based, luminescence (AID 588339); assay type: functional, hamster; conditions: Cricetulus griseus;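 further: CHO cells stably coexpressing TLR9 and MyD88 fusions from primary screen; compound exposure lasted 48 hours before viability readout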
[8] = molecular target: Beta Lactamase (Pseudomonas aeruginosa, UniProt Q932Y6); experiment: beta-lactamase reporter inhibitor potency, dose response, artefact control for TLR9-MyD88 binding inhibitor project, BLA reporter cells, FRET fluorescence (AID 588341); assay type: cell-based;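 further: cell based assay in CHO-K1 cells stably expressing beta-lactamase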
[9] = molecular target: T1, Endoribonuclease toxin MazF (Escherichia coli K-12, UniProt P0AE70); experiment: MazF toxin RNase activators, dose response, biochemical, fluorescence, single-stranded RNA substrate, uHTS hits (AID 588481); assay type: functional
T1 sequence (P0AE70 whole entry): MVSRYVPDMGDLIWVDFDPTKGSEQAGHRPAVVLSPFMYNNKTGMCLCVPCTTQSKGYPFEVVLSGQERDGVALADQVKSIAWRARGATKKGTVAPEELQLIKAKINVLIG

[10] = molecular target: T1, Endoribonuclease toxin MazF; experiment: fluorescent RNA oligo signal without MazF, dose response, counter-screen for MazEF activator project, biochemical, fluorescence, single-stranded RNase substrate (AID 588502); assay type: functional

72 kDa type IV collagenase, sequence (P08253 whole entry): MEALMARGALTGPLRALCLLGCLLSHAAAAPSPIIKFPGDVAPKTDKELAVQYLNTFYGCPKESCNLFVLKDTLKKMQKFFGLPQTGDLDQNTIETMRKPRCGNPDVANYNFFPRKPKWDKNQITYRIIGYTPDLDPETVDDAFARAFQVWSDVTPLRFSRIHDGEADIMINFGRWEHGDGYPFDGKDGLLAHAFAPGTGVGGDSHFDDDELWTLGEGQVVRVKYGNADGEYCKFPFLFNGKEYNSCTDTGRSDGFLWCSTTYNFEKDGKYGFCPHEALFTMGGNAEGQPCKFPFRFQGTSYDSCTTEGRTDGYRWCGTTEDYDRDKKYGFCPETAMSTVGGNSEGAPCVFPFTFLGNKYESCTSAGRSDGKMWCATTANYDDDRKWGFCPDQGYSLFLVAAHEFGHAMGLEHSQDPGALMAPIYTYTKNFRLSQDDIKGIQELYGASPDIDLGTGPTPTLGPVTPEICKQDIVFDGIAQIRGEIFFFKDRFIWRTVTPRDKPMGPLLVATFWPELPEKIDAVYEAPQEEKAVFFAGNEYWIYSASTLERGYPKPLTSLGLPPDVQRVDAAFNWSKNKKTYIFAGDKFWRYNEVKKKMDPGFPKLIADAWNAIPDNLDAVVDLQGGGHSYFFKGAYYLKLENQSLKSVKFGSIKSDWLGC
26S proteasome non-ATPase regulatory subunit 14, sequence (O00487 whole entry): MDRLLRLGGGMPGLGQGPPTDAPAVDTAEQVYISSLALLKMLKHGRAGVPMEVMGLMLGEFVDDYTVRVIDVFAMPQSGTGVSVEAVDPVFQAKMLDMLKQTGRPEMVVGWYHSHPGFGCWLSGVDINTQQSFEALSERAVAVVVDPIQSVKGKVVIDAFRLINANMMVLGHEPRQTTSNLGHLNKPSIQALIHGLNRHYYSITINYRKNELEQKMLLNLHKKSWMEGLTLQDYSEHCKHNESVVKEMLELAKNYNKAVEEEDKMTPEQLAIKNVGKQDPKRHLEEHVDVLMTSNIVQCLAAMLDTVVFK
Beta Lactamase, sequence (Q932Y6 whole entry): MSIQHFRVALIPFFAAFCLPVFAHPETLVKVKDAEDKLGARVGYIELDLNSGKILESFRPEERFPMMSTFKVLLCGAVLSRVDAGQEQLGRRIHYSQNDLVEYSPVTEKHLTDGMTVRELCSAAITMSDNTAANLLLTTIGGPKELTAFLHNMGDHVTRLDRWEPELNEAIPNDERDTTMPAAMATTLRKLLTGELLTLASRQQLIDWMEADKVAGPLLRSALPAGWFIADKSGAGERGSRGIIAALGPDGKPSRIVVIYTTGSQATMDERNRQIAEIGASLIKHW

With COc1ccccc1Cc1c(-c2cccc(Cl)c2)nc2ccc(Br)cn12 the IC50 [1] was > 100 µM (inactive), the IC50 [2] was 14.2 µM (active) and the IC50 [3] was 8.29 µM (active).

For O=C(NC(Cc1ccc(I)cc1)C(=O)O)c1ccc(Br)cc1 (stereo not drawn), the GI50 [4] was 21.3 µM (inactive), the GI50 [5] was 53.7 µM (inactive) and the GI50 [6] was > 100 µM (inactive).

C/C(=N\Nc1ccc([N+](=O)[O-])cc1)c1cc2ccccc2o1 was tested, and the IC50 [7] was 49.7 µM (inactive), the IC50 [1] was > 100 µM (inactive) and the IC50 [8] was 3 µM (active). For the same compound, the IC50 [2] was 1.82 µM (active) and the IC50 [3] was 1.62 µM (active).

CC(C)=CCC(OC(=O)C=C(C)C)c1cc(O)c2c(c1O)C(=O)C=CC2=O (stereo not drawn) was tested, and the GI50 [4] was 0.023 µM (active), the GI50 [5] was 0.0296 µM (active) and the GI50 [6] was 1.2 µM (inactive).

With COc1cc(/N=N\c2ccc(OC)c(S(=O)(=O)O)c2)c(C)cc1/N=N\c1ccc(/C=C/c2ccc(/N=[N+](/[O-])c3ccc(/C=C/c4ccc(/N=N/c5cc(C)c(/N=N\c6ccc(OC)c(S(=O)(=O)O)c6)cc5OC)cc4S(=O)(=O)O)c(S(=O)(=O)O)c3)cc2S(=O)(=O)O)c(S(=O)(=O)O)c1 the GI50 [5] was > 100 µM (inactive) and the GI50 [6] was > 100 µM (inactive).

In the case of COc1cc(C2c3cc4c(cc3[C@@H](Nc3ccc([N+](=O)[O-])cc3)C3COC(=O)[C@H]23)OCO4)cc(OC)c1O (stereo partly drawn), the GI50 [4] is reported as 0.324 µM (active), the GI50 [5] is reported as < 0.01 µM (active) and the GI50 [6] is reported as 0.0427 µM (active).

For CCOc1ccccc1C(=O)Nc1cc(Cl)ccc1O, the EC50 [9] was 38 µM (inactive) and the EC50 [10] was > 99 µM (inactive).

In the case of Cc1[nH]c2ccccc2c1/C=C(\C#N)C(=O)NCc1ccccc1, the EC50 [9] is reported as > 99 µM (inactive) and the EC50 [10] is reported as > 99 µM (inactive).
